# According to PMC4979471 (Cell Death Discovery, 2015):
# Like-named read-outs stand apart in the source and are kept apart here.
# Key:
# Assay in all cases: Kinase selectivity, P33-radiolabeled assay
# Type in all cases: biochemical
# Conditions in all cases: 10 μM ATP
# ACK1 = molecular target: T1, ACK1 (Homo sapiens, UniProt Q07912)
# T1 construct: purchased Reaction Biology Corp
# In short: (§1)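 ATP at 10 μM; test article at 10 μM, single point, two replicates. Output is activity as % of DMSO.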
# Aurora C = molecular target: T2, Aurora C (Homo sapiens, UniProt Q9UQB9)
# T2 construct: purchased Reaction Biology Corp
# T2 sequence (Q9UQB9 1-309): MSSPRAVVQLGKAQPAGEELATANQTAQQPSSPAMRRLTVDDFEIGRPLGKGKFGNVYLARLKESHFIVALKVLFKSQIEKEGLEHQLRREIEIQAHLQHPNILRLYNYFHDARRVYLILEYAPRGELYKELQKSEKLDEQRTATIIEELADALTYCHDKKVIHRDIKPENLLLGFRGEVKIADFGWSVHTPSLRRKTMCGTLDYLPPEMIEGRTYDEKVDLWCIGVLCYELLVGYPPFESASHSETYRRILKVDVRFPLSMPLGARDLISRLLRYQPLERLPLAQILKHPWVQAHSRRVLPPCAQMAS
# In short: as §1
# CAMK2d = molecular target: T3, CAMK2d (Homo sapiens, UniProt Q13557)
# T3 construct: purchased Reaction Biology Corp
# T3 sequence (Q13557 whole entry): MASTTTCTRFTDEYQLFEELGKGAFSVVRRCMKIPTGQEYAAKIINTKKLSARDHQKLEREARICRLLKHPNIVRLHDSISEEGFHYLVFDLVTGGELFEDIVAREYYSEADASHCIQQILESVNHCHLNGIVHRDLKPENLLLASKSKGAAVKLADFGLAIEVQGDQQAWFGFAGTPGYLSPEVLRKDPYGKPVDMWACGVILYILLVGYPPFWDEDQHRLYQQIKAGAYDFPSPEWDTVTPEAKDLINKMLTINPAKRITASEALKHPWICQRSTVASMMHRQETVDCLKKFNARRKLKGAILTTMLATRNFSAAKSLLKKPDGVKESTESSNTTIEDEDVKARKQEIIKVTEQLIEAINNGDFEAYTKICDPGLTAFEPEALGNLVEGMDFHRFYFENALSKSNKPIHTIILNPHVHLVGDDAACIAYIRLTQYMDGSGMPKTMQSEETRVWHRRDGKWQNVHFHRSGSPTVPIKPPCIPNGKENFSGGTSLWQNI
# In short: as §1
# DCAMKL2 = molecular target: T4, DCAMKL2 (Homo sapiens, UniProt Q8N568)
# T4 construct: purchased Reaction Biology Corp
# T4 sequence (Q8N568 1-766): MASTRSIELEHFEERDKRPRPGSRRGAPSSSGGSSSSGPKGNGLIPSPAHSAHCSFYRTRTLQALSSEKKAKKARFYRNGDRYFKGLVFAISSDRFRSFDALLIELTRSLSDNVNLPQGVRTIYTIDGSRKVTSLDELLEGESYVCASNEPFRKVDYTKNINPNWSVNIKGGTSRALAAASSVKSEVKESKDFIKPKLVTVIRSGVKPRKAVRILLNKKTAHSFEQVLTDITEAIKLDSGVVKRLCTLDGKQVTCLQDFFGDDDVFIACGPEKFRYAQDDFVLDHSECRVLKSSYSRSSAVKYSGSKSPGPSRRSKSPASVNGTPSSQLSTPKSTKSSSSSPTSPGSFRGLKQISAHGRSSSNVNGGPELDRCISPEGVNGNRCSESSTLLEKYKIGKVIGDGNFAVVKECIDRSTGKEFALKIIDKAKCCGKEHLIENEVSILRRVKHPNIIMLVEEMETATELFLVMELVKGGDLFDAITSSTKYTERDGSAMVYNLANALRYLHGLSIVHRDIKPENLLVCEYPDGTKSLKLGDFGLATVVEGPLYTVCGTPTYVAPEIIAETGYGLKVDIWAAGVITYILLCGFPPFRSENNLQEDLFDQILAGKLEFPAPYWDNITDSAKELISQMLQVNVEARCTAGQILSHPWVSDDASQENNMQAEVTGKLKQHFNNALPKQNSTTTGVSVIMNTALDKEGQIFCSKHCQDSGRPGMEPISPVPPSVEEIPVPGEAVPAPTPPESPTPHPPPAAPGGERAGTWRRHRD
# In short: as §1
# LCK2/ICK = molecular target: T5, LCK2/ICK (Homo sapiens, UniProt Q9UPZ9)
# T5 construct: purchased Reaction Biology Corp
# T5 sequence (Q9UPZ9 1-632): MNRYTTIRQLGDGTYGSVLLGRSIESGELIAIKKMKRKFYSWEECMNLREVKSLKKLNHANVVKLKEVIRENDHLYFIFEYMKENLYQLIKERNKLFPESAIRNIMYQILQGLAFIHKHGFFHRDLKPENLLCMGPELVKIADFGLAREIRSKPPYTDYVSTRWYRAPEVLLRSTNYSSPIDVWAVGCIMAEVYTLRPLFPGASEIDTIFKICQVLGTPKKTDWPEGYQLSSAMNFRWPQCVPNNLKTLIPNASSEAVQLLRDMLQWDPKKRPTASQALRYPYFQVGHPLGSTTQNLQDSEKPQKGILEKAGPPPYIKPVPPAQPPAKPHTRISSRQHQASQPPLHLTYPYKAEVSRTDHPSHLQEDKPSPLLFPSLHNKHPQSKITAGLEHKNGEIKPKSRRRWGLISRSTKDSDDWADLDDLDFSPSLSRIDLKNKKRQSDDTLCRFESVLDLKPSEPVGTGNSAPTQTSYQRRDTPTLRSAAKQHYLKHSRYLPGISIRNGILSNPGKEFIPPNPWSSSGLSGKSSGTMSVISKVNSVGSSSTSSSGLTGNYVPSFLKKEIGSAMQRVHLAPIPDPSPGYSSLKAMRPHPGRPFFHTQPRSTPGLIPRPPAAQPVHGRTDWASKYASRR
# In short: as §1
# STK25/YSK1 = molecular target: T6, STK25/YSK1 (Homo sapiens, UniProt O00506)
# T6 construct: purchased Reaction Biology Corp
# T6 sequence (O00506 whole entry): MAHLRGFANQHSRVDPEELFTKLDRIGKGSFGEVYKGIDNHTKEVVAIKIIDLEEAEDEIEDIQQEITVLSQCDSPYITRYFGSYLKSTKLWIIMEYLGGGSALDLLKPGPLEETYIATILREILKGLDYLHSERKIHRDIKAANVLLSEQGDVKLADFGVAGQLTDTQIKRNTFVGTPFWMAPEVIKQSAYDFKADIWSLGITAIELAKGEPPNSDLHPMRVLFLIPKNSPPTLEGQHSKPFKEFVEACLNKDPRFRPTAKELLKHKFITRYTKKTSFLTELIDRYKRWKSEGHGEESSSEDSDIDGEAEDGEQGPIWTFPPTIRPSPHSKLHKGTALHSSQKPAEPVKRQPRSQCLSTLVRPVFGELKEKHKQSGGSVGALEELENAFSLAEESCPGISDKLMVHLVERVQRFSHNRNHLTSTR
# In short: as §1
# [1] = read-out: % Enzyme Activity (relative to DMSO controls) AVG
# [2] = read-out: % Enzyme Activity (relative to DMSO controls) Data 1
# [3] = read-out: % Enzyme Activity (relative to DMSO controls) Data 2
# T1 sequence (Q07912 whole entry): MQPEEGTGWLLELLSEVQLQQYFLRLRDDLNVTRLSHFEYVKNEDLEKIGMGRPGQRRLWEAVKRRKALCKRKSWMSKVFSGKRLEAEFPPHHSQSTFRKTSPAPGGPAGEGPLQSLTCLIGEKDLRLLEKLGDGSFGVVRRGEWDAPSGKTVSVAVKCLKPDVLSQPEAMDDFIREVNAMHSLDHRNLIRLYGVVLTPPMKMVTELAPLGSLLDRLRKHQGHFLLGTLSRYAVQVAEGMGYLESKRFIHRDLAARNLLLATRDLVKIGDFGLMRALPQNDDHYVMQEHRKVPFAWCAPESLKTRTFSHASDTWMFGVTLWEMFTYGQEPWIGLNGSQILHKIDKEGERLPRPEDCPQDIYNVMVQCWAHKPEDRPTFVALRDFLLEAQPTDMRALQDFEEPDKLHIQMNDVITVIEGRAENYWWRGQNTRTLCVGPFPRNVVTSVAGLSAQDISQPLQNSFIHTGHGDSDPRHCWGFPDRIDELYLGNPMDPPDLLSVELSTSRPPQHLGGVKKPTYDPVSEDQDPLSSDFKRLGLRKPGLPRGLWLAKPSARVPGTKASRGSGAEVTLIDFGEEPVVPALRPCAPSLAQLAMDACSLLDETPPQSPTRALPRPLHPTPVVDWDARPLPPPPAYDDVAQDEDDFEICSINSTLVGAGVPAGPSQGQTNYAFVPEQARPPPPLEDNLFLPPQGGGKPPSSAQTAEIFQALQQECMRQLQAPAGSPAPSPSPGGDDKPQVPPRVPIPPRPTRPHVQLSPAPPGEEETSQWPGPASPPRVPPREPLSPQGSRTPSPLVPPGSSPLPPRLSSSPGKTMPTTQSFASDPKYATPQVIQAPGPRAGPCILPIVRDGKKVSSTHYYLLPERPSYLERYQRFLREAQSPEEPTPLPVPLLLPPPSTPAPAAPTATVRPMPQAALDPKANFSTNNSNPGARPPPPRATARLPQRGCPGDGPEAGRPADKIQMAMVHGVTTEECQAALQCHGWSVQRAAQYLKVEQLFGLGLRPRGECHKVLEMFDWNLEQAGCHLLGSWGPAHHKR
structure (smiles),measurement,setting,value
CC(C)(C)C(=O)N1N=CC[C@H]1c1ccccc1 [GSK′963],remaining activity at 10 µM,ACK1; [1],82.3%
same,remaining activity at 10 µM,ACK1; [2],84.2%
same,remaining activity at 10 µM,ACK1; [3],80.3%
same,remaining activity at 10 µM,Aurora C; [1],96.9%
same,remaining activity at 10 µM,Aurora C; [2],98.4%
same,remaining activity at 10 µM,Aurora C; [3],95.5%
same,remaining activity at 10 µM,CAMK2d; [1],108%
same,remaining activity at 10 µM,CAMK2d; [2],109%
same,remaining activity at 10 µM,CAMK2d; [3],108%
same,remaining activity at 10 µM,DCAMKL2; [1],101%
same,remaining activity at 10 µM,DCAMKL2; [2],100%
same,remaining activity at 10 µM,DCAMKL2; [3],102%
same,remaining activity at 10 µM,LCK2/ICK; [1],101%
same,remaining activity at 10 µM,LCK2/ICK; [2],100%
same,remaining activity at 10 µM,LCK2/ICK; [3],101%
same,remaining activity at 10 µM,STK25/YSK1; [1],96.1%
same,remaining activity at 10 µM,STK25/YSK1; [2],96.7%
same,remaining activity at 10 µM,STK25/YSK1; [3],95.4%
